# Source: US12528818B2, “Compositions and methods for inhibition of RAS” (Leidos Biomedical Research, Inc., priority 2021, dated 2026)
# Tested on: pERK in NCI-H358 cells
# Assay: Cell-based pERK HTRF assay (pERK inhibition in H358 cells)
# Conditions: Homo sapiens, NCI-H358, 0.5 h, pERK inhibition IC50, NCI-H358 cells, 30 min incubation; read-out: PERK in H358 cell
# Procedure: On Day 1, cells (NCI-H358) were seeded into 96-well plates at 4×10^4 cells/well in complete growth media (RPMI, 10% FBS).
# The source plate was created with compounds diluted in media at 5-fold the final assay concentration. […] 20 μL was transferred onto the cell plates (final volume in wells was 100 μL). Plates were harvested after 30 min incubation by aspirating media and adding kit-supplied 1× supplemented lysis buffer to all wells (75 μl per well). Plates were then placed on a plate shaker and incubated at 850 rpm for an additional 30 min.
# Antibody mixture solution was prepared by diluting aliquoted d2 and Eu Cryptate antibodies 1:20 in kit supplied detection buffer, then mixed the diluted antibodies solutions (1:1 v:v).
# Samples were homogenized by pipetting up and down and then transferred (16 μL of cell lysates) from the 96-well cell culture plate to two wells of the HTRF 384-well detection plate containing the antibody solution. Plates were centrifuged (524 g for 1 min) and allowed to incubate between 4 and 24 h at room temperature. Maximum signal is reached after 4 h incubation time and remains stable over a period of 24 hours. Therefore, readings can be made between 4 and 24 h of incubation.
row,SMILES,IC50
1,CC#CC(=O)N1CC[C@@H]2[C@H]1CN2c1nc(OCC23CCCN2CCC3)nc2c(F)c(-c3ccc(F)c4sc(N)nc34)c(C(F)(F)F)cc12 [Compound 180],> 1000 nM
2,C=CC(=O)N1CCC(N(CC)c2nc(OC[C@@H]3C[C@@H](F)CN3C)nc3cc(-c4ccc(F)c5sc(N)c(C#N)c45)c(C#N)cc23)[C@H]1COC (stereo partly drawn) [Compound 471],100 to 1000 nM
3,C=C(F)C(=O)N1CCN(c2nc(OC[C@]34CCCN3C[C@H](F)C4)nc3c(F)c(-c4ccc(F)c5sc(N)nc45)c(C(F)(F)F)cc23)C[C@H]1C [Compound 191],100 to 1000 nM
4,C=CC(=O)N1CCC(N(C)c2nc(OC[C@@]34CCCN3C[C@H](F)C4)nc3c(C#N)c(-c4ccc(F)c5sc(N)c(C#N)c45)ccc23)[C@H]1COC (stereo partly drawn) [Compound 394],100 to 1000 nM
5,C=CC(=O)N1CC(Nc2nc(C3CCN(C)CC3)nc3c(F)c(-c4ccc(F)c5sc(N)nc45)c(Cl)cc23)C1 [Compound 60],> 1000 nM
6,C=CC(=O)N1CC[C@@H]2[C@H]1CN2c1nc(OCC23CCCN2CCC3)nc2c(F)c(-c3ccc(F)c4sc(N)nc34)c(C(F)(F)F)cc12 [Compound 166],100 to 1000 nM
7,C=C(F)C(=O)N1CCN(c2nc(OC[C@]34CCCN3C[C@H](F)C4)nc3c(F)c(-c4ccc(F)c5sc(N)nc45)c(C(F)(F)F)cc23)[C@H](C)C1 [Compound 199],100 to 1000 nM
8,C=CC(=O)N(C)C1CN(c2nc(OCC34CCCN3CCC4)nc3c(F)c(-c4ccc(F)c5sc(N)nc45)c(Cl)cc23)C1 [Compound 167],> 1000 nM
9,C=CC(=O)N1CC[C@@H](N(C)c2nc(OCC)nc3c(F)c(-c4ccc(F)c5sc(N)c(C#N)c45)ccc23)[C@H]1C [Compound 463],> 1000 nM
10,CC#CC(=O)N1CCN(c2nc(OCC34CCCN3CCC4)nc3c(F)c(-c4ccc(F)c5sc(N)nc45)c(Cl)cc23)CC1 [Compound 133],> 1000 nM
11,C=C(F)C(=O)N1CCN(c2nc(OC[C@@]34CCCN3C[C@H](F)C4)nc3c(F)c(-c4ccc(F)c5sc(N)nc45)c(C(F)(F)F)cc23)C[C@H]1C [Compound 208],100 to 1000 nM
12,C=CC(=O)N1CC[C@@H](N(CC)c2nc(OC[C@@]34CCCN3C[C@H](F)C4)nc3cc(-c4ccc(F)c5sc(N)c(C#N)c45)c(F)cc23)[C@H]1COC [Compound 437],100 to 1000 nM
13,C=CC(=O)N1CC(Nc2nc(OCC34CCCN3CCC4)nc3c(F)c(-c4ccc(F)c5sc(N)nc45)c(C(F)(F)F)cc23)C1 [Compound 79],> 1000 nM
14,C=CC(=O)N1CC(Nc2nc(OC[C@@H]3CCCN3C)nc3c(F)c(-c4cccc5oc(N)nc45)c(Cl)cc23)C1 [Compound 88],> 1000 nM
15,C=CC(=O)N1C[C@@H](Nc2nc(OCC34CCCN3CCC4)nc3c(F)c(-c4ccc(F)c5sc(N)nc45)c(Cl)cc23)[C@H]1C [Compound 197],> 1000 nM

# Continued, values first:
row,IC50,SMILES
1,< 100 nM,C=CC(=O)N1CCC(N(C)c2nc(OC[C@@H]3CCCN3C)nc3c(F)c(-c4ccc(F)c5sc(N)c(C#N)c45)c(Cl)cc23)[C@H]1COC (stereo partly drawn) [Compound 416]
2,< 100 nM,C=CC(=O)N1C[C@H](C)N(c2nc(OC[C@@]34CCCN3C[C@H](F)C4)nc3c(F)c(-c4ccc(F)c5sc(N)nc45)c(Cl)cc23)C[C@H]1C [Compound 266]
3,< 100 nM,C=CC(=O)N1C[C@H](F)[C@@H](N(C)c2nc(OC[C@@]34CCCN3C[C@H](F)C4)nc3cc(-c4ccc(F)c5sc(N)nc45)c(C(F)(F)F)cc23)C1 [Compound 335]
4,< 100 nM,C=CC(=O)N1C[C@H](C)N(c2nc(OC[C@@]34CCCN3C[C@H](F)C4)nc3cc(-c4ccc(F)c5sc(N)c(C#N)c45)c(C(F)(F)F)cc23)C[C@H]1C [Compound 304]
5,< 100 nM,C=CC(=O)N1C[C@@H](F)[C@@H](N(C)c2nc(OC[C@@]34CCCN3C[C@H](F)C4)nc3c(F)c(-c4ccc(F)c5sc(N)nc45)c(C(F)(F)F)cc23)C1 [Compound 279]
6,< 100 nM,C=CC(=O)N1C[C@@H](F)[C@@H](N(CC)c2nc(OC[C@@]34CCCN3C[C@H](F)C4)nc3cc(-c4ccc(F)c5sc(N)c(C#N)c45)c(C#N)cc23)C1 [Compound 386]
7,< 100 nM,C=CC(=O)N1CCN(c2nc(OC[C@]34CCCN3C[C@H](F)C4)nc3c(F)c(-c4ccc(F)c5sc(N)nc45)c(C(F)(F)F)cc23)C[C@H]1C [Compound 190]
8,100 to 1000 nM,C=CC(=O)N1C[C@@H](F)[C@@H](N(C)c2nc(OC[C@@]34CCCN3C[C@H](F)C4)nc3c(F)c(-c4ccc(F)c5sc(N)nc45)c(C#N)cc23)C1 [Compound 360]
9,< 100 nM,C=CC(=O)N1CCC(N(CC)c2nc(OC[C@@H]3CCCN3C)nc3c(F)c(-c4ccc(F)c5sc(N)c(C#N)c45)c(C(F)(F)F)cc23)[C@H]1COC (stereo partly drawn) [Compound 438]
10,< 100 nM,C=CC(=O)N1C[C@@H](F)[C@@H](N(C)c2nc(OC[C@@]34CCCN3C[C@H](F)C4)nc3c(F)c(-c4ccc(F)c5sc(N)c(C#N)c45)c(C(F)(F)F)cc23)C1 [Compound 316]
11,< 100 nM,C=CC(=O)N1CC[C@@H](N(C)c2nc(OCC3(CN4CCOCC4)CC3)nc3c(F)c(-c4ccc(F)c5sc(N)nc45)c(C(F)(F)F)cc23)C1 [Compound 287]
12,< 100 nM,C=CC(=O)N1CC[C@@H](N(C)c2nc(OC[C@@H]3CC(C)(C)CN3C)nc3c(F)c(-c4ccc(F)c5sc(N)nc45)c(C(F)(F)F)cc23)C1 [Compound 265]
13,< 100 nM,C=CC(=O)N1CCC(N(CC)c2nc(OC[C@@H]3CCCN3C)nc3c(F)c(-c4ccc(F)c5sc(N)c(C#N)c45)c(C(F)(F)F)cc23)[C@H]1C (stereo partly drawn) [Compound 396]
14,< 100 nM,C=CC(=O)N1C[C@@H](F)[C@@H](N(C)c2nc(OC[C@@H]3C[C@@H](OC)CN3C)nc3cc(-c4ccc(F)c5sc(N)nc45)c(C(F)(F)F)cc23)C1 [Compound 350]
15,< 100 nM,"C=CC(=O)N1CCC(N(CC)c2nc(OC[C@@]34CCCN3C[C@H](F)C4)nc3c(C#N)c(-c4ccc(F)c5sc(N)c(C#N)c45)ccc23)[C@H]1C (stereo partly drawn) [Compound 415, 4-((1-acryloyl-2-methylpyrrolidin-3-yl)(ethyl)amino)-7-(2-amino-3-cyano-7-fluorobenzo[b]thiophen-4-yl)-2-(((2R,7aS)-2-fluorotetrahydro-1H-pyrrolizin-7a(5H)-yl)methoxy)quinazoline-8-carbonitrile]"
16,< 100 nM,C=CC(=O)N1C[C@H](F)[C@@H](N(C)c2nc(OC[C@@]34CCCN3C[C@H](F)C4)nc3cc(-c4ccc(F)c5sc(N)c(C#N)c45)c(C(F)(F)F)cc23)C1 [Compound 320]
17,< 100 nM,C=CC(=O)N1C[C@H](C)N(c2nc(OCC3(CN4CCOCC4)CC3)nc3c(F)c(-c4ccc(F)c5sc(N)nc45)c(C(F)(F)F)cc23)C[C@H]1C [Compound 285]
18,< 100 nM,"C=CC(=O)N1C[C@H](C)N(c2nc(OC[C@@]34CCCN3C[C@H](F)C4)nc3c(Cl)c(-c4ccc(F)c5sc(N)nc45)c(C(F)(F)F)cc23)C[C@H]1C [Compound 295, 1-((2R,5S)-4-(7-(2-amino-7-fluorobenzo[d]thiazol-4-yl)-8-chloro-2-(((2R,7aS)-2-fluorotetrahydro-1H-pyrrolizin-7a(5H)-yl)methoxy)-6-(trifluoromethyl)quinazolin-4-yl)-2,5-dimethylpiperazin-1-yl)prop-2-en-1-one]"
19,< 100 nM,"C=CC(=O)N1[C@@H](C)CN(c2nc(OC[C@@]34CCCN3C[C@H](OC)C4)nc3c(F)c(-c4ccc(F)c5sc(N)c(C#N)c45)c(C(F)(F)F)cc23)C[C@@H]1C (atropisomer, axis not shown) [Compound 364]"
20,< 100 nM,C=CC(=O)N1CC[C@@H](N(CC)c2nc(OC[C@@]34CCCN3C[C@H](F)C4)nc3cc(-c4ccc(F)c5sc(N)c(C#N)c45)c(C(F)(F)F)cc23)C1 [Compound 352]
21,< 100 nM,C=CC(=O)N1C[C@H](N(C)c2nc(OC[C@@]34CCCN3C[C@H](F)C4)nc3c(F)c(-c4ccc(F)c5sc(N)nc45)c(C(F)(F)F)cc23)C[C@@H]1C [Compound 293]
22,< 100 nM,"C=CC(=O)N1CC[C@@H](N(C)c2ncnc3c(F)c(-c4ccc(F)c5sc(N)c(C#N)c45)c(C(F)(F)F)cc23)C1 [Compound 383, 4-(4-(((R)-1-acryloylpyrrolidin-3-yl)(methyl)amino)-8-fluoro-6-(trifluoromethyl)quinazolin-7-yl)-2-amino-7-fluorobenzo[b]thiophene-3-carbonitrile]"
23,< 100 nM,C=CC(=O)N1CC[C@@H]2[C@H]1CN2c1nc(OC[C@@H]2C[C@@H](F)CN2C)nc2c(F)c(-c3ccc(F)c4sc(N)nc34)c(C(F)(F)F)cc12 [Compound 138]

# Same assay, conditions: pERK inhibition IC50, NCI-H358 cells, 30 min incubation; read-out: PERK in H358 cell
row,SMILES,IC50
1,"C=CC(=O)N1C[C@H](C)N(c2nc(OC[C@@]34CCCN3C[C@H](F)C4)nc3c(F)c(-c4ccc(F)c5sc(N)nc45)c(C(F)(F)F)cc23)C[C@H]1C (atropisomer, axis not shown) [Compound 267]",< 100 nM
2,"C=CC(=O)N1C[C@H](C)N(c2nc(OC[C@@]34CCCN3C[C@H](F)C4)nc3c(F)c(-c4ccc(F)c5sc(N)c(C#N)c45)c(C(F)(F)F)cc23)C[C@H]1C (single isomer, unassigned) [Compound 314]",100 to 1000 nM
3,"C=CC(=O)N1CC[C@@H](N(C)c2nc(OC[C@@]34CCCN3C[C@H](F)C4)nc3c(F)c(-c4ccc(F)c5sc(N)nc45)c(C(F)(F)F)cc23)C1 (single isomer, unassigned) [Compound 240]",100 to 1000 nM
4,"C=CC(=O)N1CC[C@H](N(C)c2nc(OC[C@@]34CCCN3C[C@H](F)C4)nc3c(F)c(-c4ccc(F)c5sc(N)c(C#N)c45)c(C(F)(F)F)cc23)[C@@H]1C (single isomer, unassigned) [Compound 473]",< 100 nM
